The source of these data is ChEMBL document CHEMBL5620374, “Synthesis and bioevaluation of novel stilbene-based derivatives as tubulin/HDAC dual-target inhibitors with potent antitumor activities in vitro and in vivo” (Eur J Med Chem, 2023).

In general, IC50 refers to the midpoint of a concentration-inhibition curve. High values mean weaker potency, low ones greater potency. As a reminder, the inhibition is the drop in the measured response relative to a control, in per cent.

The test system of experiment [1] is K562. Nature of the experiment: Antiproliferative activity against human K562 cells incubated for 72 hrs by MTT assay. It counts as functional, cell-based. The note with it: K562, 72 h.
Experiment [2] relates to K562. As to the kind of experiment: Antiproliferative activity against human K562 cells assessed as cell inhibition rate at 0.01 uM incubated for 72 hrs by MTT assay relative to control. It counts as functional.
Experiment [3] relates to K562. Nature of the experiment: Antiproliferative activity against human K562 cells assessed as cell inhibition rate at 0.1 uM incubated for 72 hrs by MTT assay relative to control. It counts as functional. On the technique in general: Tetrazolium dyes change colour on reduction, which living cells bring about.
Experiment [4] relates to K562. As to the kind of experiment: Antiproliferative activity against human K562 cells assessed as cell inhibition rate at 1 uM incubated for 72 hrs by MTT assay relative to control. It counts as functional.

For `C=C(c1ccc(OC)c(C(=O)Nc2ccccc2N)c1)c1cc(C)nc2ccccc12`, 22200 nM corresponded to half-maximal inhibition in experiment [1] (IC50).

Regarding `C=C(c1ccc(OC)c(OCC(=O)NO)c1)c1ccnc2ccccc12`, half-maximal inhibition in experiment [1] (IC50) required 79 nM.

In turn, `C=C(c1cccc(OCCCCCC(=O)NO)c1)c1cc(C)nc2ccccc12` came in with a half-inhibitory concentration (IC50) in experiment [1] of 9270 nM.

On to `C=C(c1ccc2[nH]ccc2c1)c1cc(C(=O)Nc2ccccc2N)nc2ccccc12`, for which the inhibition at 0.01 µM in experiment [2] was -0.17%. Also, in experiment [3], the inhibition at 0.1 µM was 2.75%. For the same compound, the inhibition at 1 µM in experiment [4] is 2.75%.

For `C=C(c1ccnc(OC)c1)c1ccc(OC)c(OCC(=O)NO)c1`, the IC50 in experiment [1] was 55 nM.

Compound `C=C(c1ccnc(C)c1)c1ccc(OC)c(OCCCC(=O)NO)c1` registered a 50% inhibitory concentration (IC50) in experiment [1] of 1490 nM. Take `C=C(c1ccc(OC)c(OC(F)(F)C(=O)NO)c1)c1cc(C)nc2ccccc12`: in experiment [1], the IC50 came to 204 nM.

As to `C=C(c1ccc2[nH]ccc2c1)c1cc(COCC(=O)NO)nc2ccccc12`, the inhibition at 0.01 µM in experiment [2] worked out at 2.28%. In experiment [3], the inhibition at 0.1 µM turned out to be 6.23%. Moreover, in experiment [4], the inhibition at 1 µM was determined as 15%.

`C=C(c1cccc(OC(C)C(=O)NO)c1)c1cc(C)nc2ccccc12` (stereo not given) gave a half-inhibitory concentration (IC50) in experiment [1] of 2370 nM.

Turning to `C=C(c1ccc(OC)c(O)c1)c1cc(/C=C/C(=O)NO)nc2ccccc12`, the inhibition at 0.01 µM in experiment [2] is -0.17%. Also, the inhibition at 0.1 µM in experiment [3] was determined as 12.9%. For the same compound, in experiment [4], the inhibition at 1 µM was found to be 87.3%.

`C=C(c1cc(C)nc(C)c1)c1ccc(OC)c(OCCCC(=O)NO)c1`: the IC50 in experiment [1] stood at 516 nM. As to `C=C(c1ccc(OC)c(OCCCCC(=O)NO)c1)c1cc(C)nc2ccccc12`, the IC50 in experiment [1] is 1840 nM. On the same count and under the same terms, to `C=C(c1cccc(OCC(=O)NO)c1)c1cc(C)nc2ccccc12` belongs 2480 nM; to `C=C(c1ccnc(C)c1)c1ccc(OC)c(OCCCCCC(=O)NO)c1`, 2880 nM. Regarding `C=C(c1ccc(OC)c(O)c1)c1cc(C(=O)Nc2ccccc2N)nc2ccccc12`, the inhibition at 0.01 µM in experiment [2] came out at 0.16%. The inhibition at 0.1 µM in experiment [3] is 3.71%. The inhibition at 1 µM in experiment [4] was 4.26%. The corresponding values for `C=C(c1ccc(OC)cc1)c1cc(COCC(=O)NO)nc2ccccc12` are 2.6%, 3% and 40%. In experiment [1], `C=C(c1ccnc(C)c1)c1ccc(OC)c(OCC(=O)NO)c1` gave a half-maximal inhibitory concentration (IC50) of 107 nM. Still for that read-out and setting: to `C=C(c1ccnc(OC)c1)c1ccc(OC)c(OCCCCCC(=O)NO)c1` belongs 3860 nM; to `C=C(c1ccc(OC)c(OCCC(=O)NO)c1)c1cc(C)nc2ccccc12`, 61 nM; to `C=C(c1cccc(OC(C)(C)C(=O)NO)c1)c1cc(C)nc2ccccc12`, 6860 nM. Still for that read-out and setting: to `C=C(c1ccnc(OC)c1)c1ccc(OC)c(OC(C)C(=O)NO)c1` (stereo not given) belongs 61 nM; to `C=C(c1ccnc(C)c1)c1ccc(OC)c(OC(C)C(=O)NO)c1` (stereo not given), 60 nM. On the same count and under the same terms, to `C=C(c1cc(C)nc(C)c1)c1ccc(OC)c(OCCCCCC(=O)NO)c1` belongs 1920 nM; to `C=C(c1ccc(OC)c(OC(C)C(=O)NO)c1)c1ccnc2ccccc12` (stereo not given), 69 nM. `C=C(c1cccc(OCCCC(=O)NO)c1)c1cc(C)nc2ccccc12` gave a 50% inhibitory concentration (IC50) in experiment [1] of 3000 nM. For the compound `C=C(c1ccc(OC)cc1)c1cc(C(=O)Nc2ccccc2N)nc2ccccc12`, the inhibition at 0.01 µM in experiment [2] was -0.16%. In addition, the inhibition at 0.1 µM in experiment [3] amounted to 0.24%. In addition, the inhibition at 1 µM in experiment [4] came to 1.1%.

Consider `C=C(c1cccc(OC/C=C/C(=O)NO)c1)c1cc(C)nc2ccccc12`, for which, in experiment [1], the IC50 was found to be 2740 nM. Same read-out and setting: to `C=C(c1ccc(OC)c(OCCCC(=O)NO)c1)c1cc(C)nc2ccccc12` belongs 173 nM; to `C=C(c1ccc(OC)c(OCCCCCC(=O)NO)c1)c1ccnc2ccccc12`, 3340 nM; to `C=C(c1ccnc(OC)c1)c1ccc(OC)c(OCCCC(=O)NO)c1`, 1140 nM. The same measure, in the same setting: to `C=C(c1ccc(OC)c(OCCCC(=O)NO)c1)c1ccnc2ccccc12` belongs 1460 nM; to `C=C(c1ccc(OC)c(C(=O)NO)c1)c1cc(C)nc2ccccc12`, 1320 nM. The same measure, in the same setting: to `C=C(c1ccc(OC)c(OCCCCCC(=O)NO)c1)c1cc(C)nc2ccccc12` belongs 2260 nM.
